Results published in US11881286B2, “CD8+ t cell based immunosuppressive tumor microenvironment detection method” (GENENTECH, INC., priority 2019, dated 2024).

How the values were obtained:
[1] = test system: OAW42; test: Surface MHC-I (HLA-ABC) expression by flow cytometry, OAW42; type: cell-based, human; settings: 96 h
Description: (§1) SK-OV-3 and OVCA-420 (MHC-I^high), and OAW42 and PA-1 (MHC-I^low) ovarian cancer lines were cultured in complete culture media (RPMI-1640+10% FBS). The cells were plated at 12,500-100,000 cells/well in 6-well tissue culture plate and complete culture media. After 24 hours, the cells were starved overnight in DMEM high glucose medium without FBS. Next, the starving media was replaced with culture media only (DMEM+2% FBS), 10 ng/mL rhTGFβ1 (Cat #PHG9204, Thermo Fisher, CA), 10 ng/mL rhTGFβ1+10 μM Galunisertib (Cat #S2230, SelleckChem, TX) or 5 ng/mL recombinant IFNγ (Cat #554617, BD Biosciences, CA) for 96 h at 37° C. Cells were then stained and analysed by flow cytometry. The “percentage of untreated” was calculated using this formula: [Geo Mean Fluorescence Intensity (IFNγ-treated cells)/Geo Mean Fluorescence Intensity (untreated cells)]×100. […] Media was half-replenished with fresh 5-Aza 48 hours after treatment to keep concentration consistent. Before staining, Fc receptors were blocked for 10 min at room temperature using FcR blocking reagent human (Cat #130-059-901, Miltenyi Biotec, CA). Cells were stained during the blocking step with the LIVE/DEAD™ Fixable Near-IR Dead Cell (Cat #L10119, Invitrogen, CA). […]

[2] = test system: PA-1; test: Surface MHC-I (HLA-ABC) expression by flow cytometry, PA-1; type: cell-based, human; settings: 96 h
Description: as §1

[3] = test system: SK-OV-3; test: Surface MHC-I (HLA-ABC) expression by flow cytometry, SK-OV-3; type: cell-based, human; settings: 96 h
Description: SK-OV-3 and OVCA-420 (MHC-I^high), and OAW42 and PA-1 (MHC-I^low) ovarian cancer lines were cultured in complete culture media (RPMI-1640+10% FBS). The cells were plated at 12,500-100,000 cells/well in 6-well tissue culture plate and complete culture media. After 24 hours, the cells were starved overnight in DMEM high glucose medium without FBS. Next, the starving media was replaced with culture media only (DMEM+2% FBS), 10 ng/mL rhTGFβ1 (Cat #PHG9204, Thermo Fisher, CA), 10 ng/mL rhTGFβ1+10 μM Galunisertib (Cat #S2230, SelleckChem, TX) or 5 ng/mL recombinant IFNγ (Cat #554617, BD Biosciences, CA) for 96 h at 37° C. Cells were then stained and analysed by flow cytometry. The “percentage of untreated” was calculated using this formula: [Geo Mean Fluorescence Intensity (IFNγ-treated cells)/Geo Mean Fluorescence Intensity (untreated cells)]×100. In order to see if MHC-I expression can be regulated by methylation, two MHC-I^low lines OAW42 and PA-1 were plated at 250,000-500,000 cells/dish in 10-cm dish and serum starved as described above for TGFβ1 treatment. 10 μM and 1 μM 5-Aza-2′-deoxycytidine (5-Aza, Cat #A2385, Sigma-Aldrich) demethylating agent in culture media was used to treat OAW42 and PA-1, respectively, for 96 h prior to FACS analysis. Media was half-replenished with fresh 5-Aza 48 hours after treatment to keep concentration consistent. […]

[4] = test system: OVCA-420; test: Surface MHC-I (HLA-ABC) expression by flow cytometry, OVCA-420; type: cell-based, human
Description: SK-OV-3 and OVCA-420 (MHC-I^high), and OAW42 and PA-1 (MHC-I^low) ovarian cancer lines were cultured in complete culture media (RPMI-1640+10% FBS). The cells were plated at 12,500-100,000 cells/well in 6-well tissue culture plate and complete culture media. After 24 hours, the cells were starved overnight in DMEM high glucose medium without FBS. Next, the starving media was replaced with culture media only (DMEM+2% FBS), 10 ng/mL rhTGFβ1 (Cat #PHG9204, Thermo Fisher, CA), 10 ng/mL rhTGFβ1+10 μM Galunisertib (Cat #S2230, SelleckChem, TX) or 5 ng/mL recombinant IFNγ (Cat #554617, BD Biosciences, CA) for 96 h at 37° C. Cells were then stained and analysed by flow cytometry. The “percentage of untreated” was calculated using this formula: [Geo Mean Fluorescence Intensity (IFNγ-treated cells)/Geo Mean Fluorescence Intensity (untreated cells)]×100. In order to see if MHC-I expression can be regulated by methylation, two MHC-I^low lines OAW42 and PA-1 were plated at 250,000-500,000 cells/dish in 10-cm dish and serum starved as described above for TGFβ1 treatment. 10 μM and 1 μM 5-Aza-2′-deoxycytidine (5-Aza, Cat #A2385, Sigma-Aldrich) demethylating agent in culture media was used to treat OAW42 and PA-1, respectively, for 96 h prior to FACS analysis. Media was half-replenished with fresh 5-Aza 48 hours after treatment to keep concentration consistent.
Before staining, Fc receptors were blocked for 10 min at room temperature using FcR blocking reagent human (Cat #130-059-901, Miltenyi Biotec, CA). Cells were stained during the blocking step with the LIVE/DEAD™ Fixable Near-IR Dead Cell (Cat #L10119, Invitrogen, CA). Then, cells were incubated at room temperature for 15 min with anti-human HLA-ABC-PE (Cat #560168, BD Biosciences, CA) or isotype control mouse IgG1κ-PE (Cat #556650, BD Biosciences) antibodies, washed and samples were acquired on BD LSRFortessa™ flow cytometer.

[5] = test system: SMAD2/3; test: p-SMAD2/3 Western blot assay in PHBF fibroblasts; type: cell-based, human; settings: 30 min
Description: PHBF cells were plated at 100,000 cells/well in a 24-well cell culture plate overnight, serum starved for 24 h and then cultured in serum-free DMEM with indicated concentration of […] with or without Galunisertib for 30 min. Cells were lysed in protein lysis buffer containing T-PER tissue protein extraction reagent (ThermoFisher, #78510), cOmplete™ Protease Inhibitor Cocktail (Sigma-Aldrich, #11697498001) and PhosSTOP™ phosphatase inhibitor cocktails (Sigma-Aldrich, #4906845001). Total protein was diluted and normalized to 0.5 μg/μL with 4×LDS Sample Buffer (ThermoFisher, #84788). 10 ug of total protein was loaded into each well of a NuPAGE 4-12% Bis-Tris Midi Gel (Invitrogen), followed by protein transfer from gel to the membrane using Trans-Blot Turbo (Bio-Rad). […] Briefly, the membrane was blocked for 1 h, incubated with Phospho-Smad2 antibodies overnight at 4° C. ([…], 1:200, Cell Signaling #3108, clone138D4), washed and incubated with secondary antibodies goat anti-rabbit. To analyse the total Smad2/3, the membrane was stripped and then incubated with Smad2/3 antibodies (1:1000, Cell Signaling #8685).

[6] = test system: IL-6; test: IL-6 protein in fibroblast supernatant by Luminex; type: cell-based, human; settings: rhTGFβ1, 48 h
Description: (§2) The primary normal fibroblast PHBF (Bladder), CCD-18Co (Colon) and HOF (Ovary) were serum-starved overnight before treatment with media only (untreated), 10 ng/mL rhTGFβ1 or 10 ng/mL rhTGFβ1+10 μM Galunisertib for 24 hours and total RNA was extracted for RNA-seq analysis. To detect IL-6 protein in the supernatant, cells were treated for 48 hours with rhTGFβ1. After the 48 h, the supernatant was collected and analysed by Luminex using the Millipore kit. For the proliferation assay, PHBF, CCD-18Co, HOF were plated at 3,000 cells/well in a 96-well culture flat bottom plate for immunofluorescent assays (Corning, #3917) overnight. Cells were then cultured for 72 hours in DMEM high glucose+1% FBS with indicated concentration of TGFβ1 with or without Galunisertib. Next, CellTiter-Glo® reagents (Promega, G7570) were added to each well and luminescence signal was read with a microplate reader.

[7] = test system: primary human fibroblasts; test: RNA-seq transcriptional response of primary human fibroblasts; type: cell-based; settings: 10 ng/mL rhTGFβ1, 24 h
Description: as §2

[8] = test system: primary human fibroblasts; test: Proliferation assay (CellTiter-Glo) of primary human fibroblasts; type: cell-based; settings: ovary, bladder and colon fibroblasts, 72 h
Description: as §2

For Nc1ncn([C@H]2C[C@H](O)[C@@H](CO)O2)c(=O)n1 [5-aza-2′-deoxycytidine], the “expression of MHC class I protein at the tumor cell surface” value ([1]; OAW42, 10 μM 5-Aza, vs DMSO) was “significantly induce” and the “expression of MHC class I protein at the tumor cell surface” value ([2]; PA-1, 1 μM 5-Aza, vs DMSO) was “significantly induce”.

Cc1cccc(-c2nn3c(c2-c2ccnc4ccc(C(N)=O)cc24)CCC3)n1 [Galunisertib] was tested, and the “MHC class I expression in the presence of Galunisertib” value ([3]; SK-OV-3, 10 ng/mL rhTGFβ1+10 μM Galunisertib) was “restored to the untreated level”, the “MHC class I expression in the presence of Galunisertib” value ([4]; OVCA-420, 10 ng/mL rhTGFβ1+10 μM Galunisertib, 96 h) was “restored to the untreated level” and the “TGFβ pathway (SMAD2/3 phosphorylation) with Galunisertib treatment” value ([5]; TGFβ1 with Galunisertib) was “pathway inhibition”.

“TGFβ1: recombinant human TGFβ1 (rhTGFβ1, Cat #PHG9204, Thermo Fisher)” was tested, and the “IL-6 protein secretion level in the supernatant” value [6] was “dramatically increased”, the “decrease of surface expression of MHC-I compared to the untreated cells” value ([4]; OVCA-420, 10 ng/mL rhTGFβ1, 96 h, flow cytometry) was 40.45±14.2% and the “phosphorylation level of SMAD2/3” value ([5]; TGFβ dose-dependent) was “increased”. For the same molecule, the “expression of immune-modulatory molecules (IL11, TNFAIP6) in fibroblast cells” value [7] was “specifically induced”, the “mRNA expression of IL6 in human fibroblasts” value [7] was “specifically induced” and the “transcriptional program induced in human primary fibroblasts (ECM-related genes, reactive stroma markers)” value ([7]; ovary, bladder, colon fibroblasts) was “common 77-gene transcriptional program specifically induced”. The “proliferation of primary human fibroblasts” value [8] was “promoted proliferation”.

B1: IFNγ: recombinant IFNγ, a cytokine well established for inducing MHC-I expression (protein, UniProt P01579 24-161, looked up)
Interferon gamma: QDPYVKEAENLKKYFNAGHSDVADNGTLFLGILKNWKEESDRKIMQSQIVSFYFKLFKNFKDDQSIQKSVETIKEDMNVKFFNSNKKKRDDFEKLTNYSVTDLNVQRKAIHELIQVMAELSPAAKTGKRKRSQMLFRG
For B1, the “MHC class I protein expression on the tumor cell surface” value (shortened to “MHC class I protein expression”) ([3]; SK-OV-3 (MHC-I high), 5 ng/mL IFNγ) was “increased”, the “MHC class I protein expression” value ([4]; OVCA-420 (MHC-I high), 5 ng/mL IFNγ, 96 h) was “increased” and the “MHC class I protein expression” value ([1]; OAW42 (MHC-I low), 5 ng/mL IFNγ) was “increased”. For the same molecule, the “MHC class I protein expression” value ([2]; PA-1 (MHC-I low), 5 ng/mL IFNγ) was “increased”.
